What was measured:
[1] = molecular target: T1, Retinoic acid receptor beta (Homo sapiens, UniProt P10826); type: functional, cell-based
T1 sequence (P10826 whole entry): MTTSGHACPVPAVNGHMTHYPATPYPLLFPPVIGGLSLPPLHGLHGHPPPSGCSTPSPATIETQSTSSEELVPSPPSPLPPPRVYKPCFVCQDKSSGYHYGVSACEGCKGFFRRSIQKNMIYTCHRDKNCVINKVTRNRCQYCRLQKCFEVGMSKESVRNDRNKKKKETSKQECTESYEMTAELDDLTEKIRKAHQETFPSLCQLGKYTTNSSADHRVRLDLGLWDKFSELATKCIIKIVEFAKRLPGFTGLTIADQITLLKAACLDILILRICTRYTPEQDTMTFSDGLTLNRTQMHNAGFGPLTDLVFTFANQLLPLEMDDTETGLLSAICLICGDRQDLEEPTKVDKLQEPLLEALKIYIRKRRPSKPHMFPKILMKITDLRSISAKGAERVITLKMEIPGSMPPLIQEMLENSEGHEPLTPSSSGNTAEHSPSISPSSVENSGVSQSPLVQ

[2] = molecular target: T2, Nuclear receptor subfamily 1 group I member 3 (Homo sapiens, UniProt Q14994); type: functional
T2 sequence (Q14994 whole entry): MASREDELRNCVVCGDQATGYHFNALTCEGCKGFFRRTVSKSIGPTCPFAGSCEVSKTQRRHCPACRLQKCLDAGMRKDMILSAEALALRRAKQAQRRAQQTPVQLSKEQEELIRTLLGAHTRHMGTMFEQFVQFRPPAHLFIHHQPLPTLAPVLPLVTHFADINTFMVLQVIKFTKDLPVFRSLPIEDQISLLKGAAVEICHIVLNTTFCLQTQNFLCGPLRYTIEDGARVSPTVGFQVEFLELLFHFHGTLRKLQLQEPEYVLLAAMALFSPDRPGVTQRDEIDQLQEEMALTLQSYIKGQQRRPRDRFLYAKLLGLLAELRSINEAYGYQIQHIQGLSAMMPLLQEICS

[3] = molecular target: T3, Peroxisome proliferator-activated receptor alpha (Homo sapiens, UniProt Q07869); type: functional
T3 sequence (Q07869 whole entry): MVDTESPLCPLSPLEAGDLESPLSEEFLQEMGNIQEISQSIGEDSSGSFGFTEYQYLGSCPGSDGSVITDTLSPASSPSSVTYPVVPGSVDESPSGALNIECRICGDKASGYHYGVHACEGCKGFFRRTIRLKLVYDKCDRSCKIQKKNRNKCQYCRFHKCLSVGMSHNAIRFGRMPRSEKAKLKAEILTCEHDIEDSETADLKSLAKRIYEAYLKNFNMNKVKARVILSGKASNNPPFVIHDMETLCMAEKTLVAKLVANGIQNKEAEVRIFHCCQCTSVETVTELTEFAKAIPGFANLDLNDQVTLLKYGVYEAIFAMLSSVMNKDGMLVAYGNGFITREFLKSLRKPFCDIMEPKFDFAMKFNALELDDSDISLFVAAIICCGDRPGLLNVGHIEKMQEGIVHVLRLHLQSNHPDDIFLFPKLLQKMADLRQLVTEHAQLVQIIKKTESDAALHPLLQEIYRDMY

[4] = molecular target: T1, Retinoic acid receptor beta; type: functional, cell-based; remark: listed apart in the source
[5] = molecular target: T4, Retinoic acid receptor gamma (Homo sapiens, UniProt P13631); type: functional, cell-based
T4 sequence (P13631 whole entry): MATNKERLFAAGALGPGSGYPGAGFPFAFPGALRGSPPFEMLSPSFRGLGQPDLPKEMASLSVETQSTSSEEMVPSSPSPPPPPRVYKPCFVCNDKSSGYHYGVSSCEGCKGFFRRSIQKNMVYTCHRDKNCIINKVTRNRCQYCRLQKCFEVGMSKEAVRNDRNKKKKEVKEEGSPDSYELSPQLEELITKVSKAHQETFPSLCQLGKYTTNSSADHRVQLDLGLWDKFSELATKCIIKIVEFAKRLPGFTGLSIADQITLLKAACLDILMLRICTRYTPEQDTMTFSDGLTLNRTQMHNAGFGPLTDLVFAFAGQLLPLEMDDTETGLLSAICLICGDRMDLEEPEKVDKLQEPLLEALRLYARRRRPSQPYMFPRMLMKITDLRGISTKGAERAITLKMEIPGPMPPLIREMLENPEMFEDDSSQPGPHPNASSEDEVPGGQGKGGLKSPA

[6] = molecular target: T5, Oxysterols receptor LXR-beta (Homo sapiens, UniProt P55055); type: functional
T5 sequence (P55055 whole entry): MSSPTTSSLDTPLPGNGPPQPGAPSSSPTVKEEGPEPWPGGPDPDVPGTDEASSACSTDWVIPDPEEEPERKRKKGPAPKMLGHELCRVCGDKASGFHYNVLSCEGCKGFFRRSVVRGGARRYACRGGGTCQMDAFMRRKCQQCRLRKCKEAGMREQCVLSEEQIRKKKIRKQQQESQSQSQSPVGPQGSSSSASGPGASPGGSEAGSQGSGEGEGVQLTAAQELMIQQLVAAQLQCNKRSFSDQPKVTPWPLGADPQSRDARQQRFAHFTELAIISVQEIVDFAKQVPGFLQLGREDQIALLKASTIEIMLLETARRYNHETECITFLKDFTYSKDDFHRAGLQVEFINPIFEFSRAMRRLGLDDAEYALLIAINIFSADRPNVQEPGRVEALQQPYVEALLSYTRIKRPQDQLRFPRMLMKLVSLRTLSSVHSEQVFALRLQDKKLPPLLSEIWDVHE

[7] = molecular target: T6, Bile acid receptor (Homo sapiens, UniProt Q96RI1); type: functional
T6 sequence (Q96RI1 whole entry): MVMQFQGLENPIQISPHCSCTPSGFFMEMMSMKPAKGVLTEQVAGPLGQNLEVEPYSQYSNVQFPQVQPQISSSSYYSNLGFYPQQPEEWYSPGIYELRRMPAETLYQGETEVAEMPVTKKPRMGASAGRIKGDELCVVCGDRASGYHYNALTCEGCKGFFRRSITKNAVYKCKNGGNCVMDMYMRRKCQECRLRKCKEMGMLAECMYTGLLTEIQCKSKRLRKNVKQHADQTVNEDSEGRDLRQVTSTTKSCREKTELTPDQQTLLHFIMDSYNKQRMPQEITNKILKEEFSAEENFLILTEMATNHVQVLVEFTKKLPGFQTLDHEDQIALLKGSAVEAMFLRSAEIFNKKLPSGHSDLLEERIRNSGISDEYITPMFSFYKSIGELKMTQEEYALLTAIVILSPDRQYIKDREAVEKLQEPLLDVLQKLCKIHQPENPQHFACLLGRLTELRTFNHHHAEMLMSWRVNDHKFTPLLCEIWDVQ
Further: assay procedure not described here.

**Q.** What does the source list for `CC(=O)N1CCN(c2ccc(OCC3COC(Cn4ccnc4)(c4ccc(Cl)cc4Cl)O3)cc2)CC1` (configuration not stated) [KETOCONAZOLE]?
**A.** AC50 [1]: 3.3 µM; AC50 [2]: 5 µM; AC50 [3]: > 30 µM; AC50 [4]: > 30 µM; AC50 [5]: > 30 µM; AC50 [6]: > 30 µM; AC50 [7]: > 30 µM

Source: ChEMBL document CHEMBL5291721, “A preclinical secondary pharmacology resource illuminates target-adverse drug reaction associations of marketed drugs” (Nat Commun, 2023)
